Patent publication US8674110B2, “Pyridylacetylenes for use as radiotracers and imaging agents” (Novartis AG, priority 2003, dated 2014)
“And” between values parts separate entries of the source, which are not always exact repeats. Equal values may be shown once.

Experiments:
mGlu5 receptors = target: T1, mGlu5 receptors (Rattus norvegicus, UniProt P31424); experiment: Organ and brain structure distribution (biodistribution) with and without blockade; assay type: in vivo, Sprague-Dawley rats; settings: 30 min post-injection, individual values
T1 construct: from tissue; host or cells: rat brain regions and organs (in vivo tracer distribution)
T1 sequence (P31424 21-1203): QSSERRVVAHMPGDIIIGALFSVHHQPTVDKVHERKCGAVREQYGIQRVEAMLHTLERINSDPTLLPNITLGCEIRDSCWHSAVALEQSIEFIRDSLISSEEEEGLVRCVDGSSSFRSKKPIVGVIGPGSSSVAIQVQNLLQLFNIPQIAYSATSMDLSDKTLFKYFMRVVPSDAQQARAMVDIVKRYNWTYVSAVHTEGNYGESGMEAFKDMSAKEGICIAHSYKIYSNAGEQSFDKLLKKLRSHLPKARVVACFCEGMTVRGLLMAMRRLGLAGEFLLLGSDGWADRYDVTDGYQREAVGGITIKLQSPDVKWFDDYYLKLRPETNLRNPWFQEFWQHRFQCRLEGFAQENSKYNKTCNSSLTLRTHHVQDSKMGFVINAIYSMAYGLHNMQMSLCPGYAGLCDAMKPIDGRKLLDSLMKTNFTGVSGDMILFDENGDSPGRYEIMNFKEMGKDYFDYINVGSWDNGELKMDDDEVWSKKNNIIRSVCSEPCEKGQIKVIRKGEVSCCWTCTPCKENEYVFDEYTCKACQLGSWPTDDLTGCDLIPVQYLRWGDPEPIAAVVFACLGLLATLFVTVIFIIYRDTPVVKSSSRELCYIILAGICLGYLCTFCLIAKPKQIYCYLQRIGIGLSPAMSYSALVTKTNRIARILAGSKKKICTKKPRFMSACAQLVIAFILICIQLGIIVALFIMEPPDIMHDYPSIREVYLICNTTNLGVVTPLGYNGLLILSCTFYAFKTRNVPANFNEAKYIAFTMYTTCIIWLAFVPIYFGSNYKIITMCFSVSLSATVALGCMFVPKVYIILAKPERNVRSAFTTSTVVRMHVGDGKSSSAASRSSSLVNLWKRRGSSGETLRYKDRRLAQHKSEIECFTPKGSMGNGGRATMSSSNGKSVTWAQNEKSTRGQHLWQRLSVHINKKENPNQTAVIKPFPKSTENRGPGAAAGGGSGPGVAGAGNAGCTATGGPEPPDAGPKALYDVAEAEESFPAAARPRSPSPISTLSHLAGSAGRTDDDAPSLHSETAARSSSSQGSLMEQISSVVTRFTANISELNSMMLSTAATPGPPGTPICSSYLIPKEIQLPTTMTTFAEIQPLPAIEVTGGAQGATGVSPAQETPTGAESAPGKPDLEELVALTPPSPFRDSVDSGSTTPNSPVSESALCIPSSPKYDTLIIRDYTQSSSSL
Experimental: Two groups of male adult Sprague-Dawley rats weighing 250-300 g are used for the biodistribution studies. The first group (n=3) serves as the control group and the second group (n=3) serves as the blockade group. Each animal received 250-300 pmol (0.6-40 MBq) of 3-(6-methyl-pyridin-2-ylethynyl)-cyclohex-2-enone O-[^11C-methyl]oxime via a lateral tail vein. The blockade group is co-injected with 2-methyl-6-((3-methoxyphenyl)ethynyl)-pyridine (1 mg/kg) whereas the control group (n=3) receives a corresponding volume of 0.9% NaCl. The animals are sacrificed 30 min post-injection. Organ or brain regions such as hippocampus, striatum, cortex and cerebellum are removed and measured in a gamma-counter. The tissue distribution is expressed as percentage of injected dose per gram wet tissue (% ID/g organ).
K1, K2, K3 are individual values for control animals. B1, B2, B3 are individual values for animals co-injected with 2-methyl-6-((3-methoxyphenyl)ethynyl)-pyridine.

human mGlu5 receptor = target: T2, human mGlu5 receptor (Homo sapiens, UniProt P41594); experiment: Ki/IC50 determination (binding assay), radioligand displacement
T2 construct: expressed in transfected cells
T2 sequence (P41594 21-1180 isoform P41594-2 limits assumed): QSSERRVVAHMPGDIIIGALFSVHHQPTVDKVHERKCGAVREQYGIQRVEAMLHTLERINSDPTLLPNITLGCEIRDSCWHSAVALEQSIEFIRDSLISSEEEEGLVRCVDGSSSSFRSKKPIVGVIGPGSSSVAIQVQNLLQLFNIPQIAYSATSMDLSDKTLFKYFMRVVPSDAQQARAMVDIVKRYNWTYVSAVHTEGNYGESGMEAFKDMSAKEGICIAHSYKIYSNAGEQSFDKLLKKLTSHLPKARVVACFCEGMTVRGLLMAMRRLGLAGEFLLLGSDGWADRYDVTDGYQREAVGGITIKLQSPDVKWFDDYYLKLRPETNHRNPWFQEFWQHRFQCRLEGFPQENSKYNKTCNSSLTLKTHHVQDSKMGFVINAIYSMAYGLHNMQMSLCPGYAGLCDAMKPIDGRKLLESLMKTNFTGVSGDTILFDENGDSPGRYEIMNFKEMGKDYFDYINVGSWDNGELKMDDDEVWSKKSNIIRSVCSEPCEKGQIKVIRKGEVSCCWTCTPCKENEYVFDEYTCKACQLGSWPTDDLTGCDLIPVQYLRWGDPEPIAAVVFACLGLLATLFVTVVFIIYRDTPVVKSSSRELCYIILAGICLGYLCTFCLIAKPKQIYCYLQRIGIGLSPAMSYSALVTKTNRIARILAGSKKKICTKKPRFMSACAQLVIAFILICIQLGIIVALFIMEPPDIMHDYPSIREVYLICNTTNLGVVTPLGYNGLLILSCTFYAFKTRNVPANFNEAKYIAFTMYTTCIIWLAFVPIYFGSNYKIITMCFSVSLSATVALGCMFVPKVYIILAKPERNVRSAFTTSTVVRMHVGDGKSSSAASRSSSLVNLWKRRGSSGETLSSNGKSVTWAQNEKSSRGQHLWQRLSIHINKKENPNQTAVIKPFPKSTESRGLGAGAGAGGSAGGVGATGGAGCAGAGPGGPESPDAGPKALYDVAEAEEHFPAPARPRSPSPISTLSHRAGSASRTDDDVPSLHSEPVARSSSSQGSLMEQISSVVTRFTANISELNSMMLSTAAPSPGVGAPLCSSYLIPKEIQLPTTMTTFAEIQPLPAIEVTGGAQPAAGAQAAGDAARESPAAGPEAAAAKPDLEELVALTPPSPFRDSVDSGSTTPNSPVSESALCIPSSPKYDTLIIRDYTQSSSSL
Experimental: In vitro, the affinity for the mGlu5 receptor is determined using a radioligand displacement technique as described by Gasparini et al, Biorg. Med. Chem. Lett. 2002, 12, 407-409.

[1] = blockade animals B1-B3 co-injected with 2-methyl-6-((3-methoxyphenyl)ethynyl)-pyridine 1 mg/kg
[2] = control animals K1-K3 (0.9% NaCl), i.v. tail vein

| Ki (human mGlu5 receptor; calculated using the Cheng-Prusoff equation, radioligand concentration 2 nM) [nM] | Hill coefficient (human mGlu5 receptor; displacement of [3H]-2-methyl-6-((3-methoxyphenyl)ethynyl)-pyridine, L-tk cell membranes, human mGlu5) | IC50 (human mGlu5 receptor; membrane of L-tk cells stably expressing the human mGlu5 receptor, 95% confidence intervals: 6.0-10.0 nM, read-out: IC50 for the displacement of [3H]-2-methyl-6-((3-methoxyphenyl)ethynyl)-pyridine) [nM] | Compound | percentage of injected dose per gram wet tissue, Cerebellum (mGlu5 receptors; [1]) | percentage of injected dose per gram wet tissue, Cortex (mGlu5 receptors; [1]) | percentage of injected dose per gram wet tissue, Hippocampus (mGlu5 receptors; [1]) | percentage of injected dose per gram wet tissue, Midbrain (mGlu5 receptors; [1]) | percentage of injected dose per gram wet tissue, Restbrain (mGlu5 receptors; [1]) | percentage of injected dose per gram wet tissue, Striatum (mGlu5 receptors; [1]) | percentage of injected dose per gram wet tissue, Whole brain (mGlu5 receptors; [1]) | percentage of injected dose per gram wet tissue, Cerebellum (mGlu5 receptors; [2]) | percentage of injected dose per gram wet tissue, Cortex (mGlu5 receptors; [2]) | percentage of injected dose per gram wet tissue, Hippocampus (mGlu5 receptors; [2]) | percentage of injected dose per gram wet tissue, Midbrain (mGlu5 receptors; [2]) | percentage of injected dose per gram wet tissue, Restbrain (mGlu5 receptors; [2]) | percentage of injected dose per gram wet tissue, Striatum (mGlu5 receptors; [2]) | percentage of injected dose per gram wet tissue, Whole brain (mGlu5 receptors; [2]) |
| --- | --- | --- | --- | --- | --- | --- | --- | --- | --- | --- | --- | --- | --- | --- | --- | --- | --- |
| – | – | – | Cc1cccc(C#CC2=CC(=NO[11CH3])CCC2)n1 [Example 1, 3-(6-Methyl-pyridin-2-ylethynyl)-cyclohex-2-enone O-[^11C-methyl]-oxime] | 0.04052 % ID/g organ and 0.03608 % ID/g organ and 0.03421 % ID/g organ | 0.04964 % ID/g organ and 0.05582 % ID/g organ and 0.05431 % ID/g organ | 0.05184 % ID/g organ and 0.06195 % ID/g organ and 0.05972 % ID/g organ | 0.03876 % ID/g organ and 0.047 % ID/g organ and 0.04422 % ID/g organ | 0.03832 % ID/g organ and 0.04762 % ID/g organ and 0.04383 % ID/g organ | 0.06495 % ID/g organ and 0.07158 % ID/g organ and 0.06487 % ID/g organ | 0.0458 % ID/g organ and 0.05118 % ID/g organ and 0.04951 % ID/g organ | 0.03322 % ID/g organ and 0.03925 % ID/g organ and 0.03699 % ID/g organ | 0.1485 % ID/g organ and 0.1832 % ID/g organ and 0.1691 % ID/g organ | 0.1615 % ID/g organ and 0.2544 % ID/g organ and 0.2126 % ID/g organ | 0.07703 % ID/g organ and 0.1056 % ID/g organ and 0.09091 % ID/g organ | 0.05519 % ID/g organ and 0.0652 % ID/g organ and 0.0607 % ID/g organ | 0.2256 % ID/g organ and 0.3069 % ID/g organ and 0.2816 % ID/g organ | 0.1112 % ID/g organ and 0.1366 % ID/g organ and 0.13 % ID/g organ |
| 4 | 1.08 | 8 | CON=C1C=C(C#Cc2cccc(C)n2)CCC1 [3-(6-methyl-pyridin-2-ylethynyl)-cyclohex-2-enone O-methyl-oxime] | – | – | – | – | – | – | – | – | – | – | – | – | – | – |
